The source of these data is ChEMBL document CHEMBL5678818, “Discovery of potent SOS1 inhibitors that block RAS activation via disruption of the RAS-SOS1 interaction” (Proc Natl Acad Sci U S A, 2019).

In test [1] the test system is Tyrosine-protein kinase ABL1 (Homo sapiens), P00519 [H396P]. Briefly: Inhibition of nonphosphorylated ABL1 H396P mutant (unknown origin) assessed as residual activity at 100 nM by KINOMEscan analysis relative to control.
Test [2] deals with Proto-oncogene tyrosine-protein kinase receptor Ret (Homo sapiens), P07949 [V804L]. In words: Inhibition of RET V804L mutant (unknown origin) assessed as residual activity at 100 nM by KINOMEscan analysis relative to control.
Test [3] concerns the target Serine/threonine-protein kinase 26 (Homo sapiens) (UniProt Q9P289). Briefly: Inhibition of MST4 (unknown origin) assessed as residual activity at 100 nM by KINOMEscan analysis relative to control.
For test [4], the target named is T1, Tyrosine-protein kinase receptor TYRO3 (Homo sapiens) (UniProt Q06418).
T1 sequence (whole entry): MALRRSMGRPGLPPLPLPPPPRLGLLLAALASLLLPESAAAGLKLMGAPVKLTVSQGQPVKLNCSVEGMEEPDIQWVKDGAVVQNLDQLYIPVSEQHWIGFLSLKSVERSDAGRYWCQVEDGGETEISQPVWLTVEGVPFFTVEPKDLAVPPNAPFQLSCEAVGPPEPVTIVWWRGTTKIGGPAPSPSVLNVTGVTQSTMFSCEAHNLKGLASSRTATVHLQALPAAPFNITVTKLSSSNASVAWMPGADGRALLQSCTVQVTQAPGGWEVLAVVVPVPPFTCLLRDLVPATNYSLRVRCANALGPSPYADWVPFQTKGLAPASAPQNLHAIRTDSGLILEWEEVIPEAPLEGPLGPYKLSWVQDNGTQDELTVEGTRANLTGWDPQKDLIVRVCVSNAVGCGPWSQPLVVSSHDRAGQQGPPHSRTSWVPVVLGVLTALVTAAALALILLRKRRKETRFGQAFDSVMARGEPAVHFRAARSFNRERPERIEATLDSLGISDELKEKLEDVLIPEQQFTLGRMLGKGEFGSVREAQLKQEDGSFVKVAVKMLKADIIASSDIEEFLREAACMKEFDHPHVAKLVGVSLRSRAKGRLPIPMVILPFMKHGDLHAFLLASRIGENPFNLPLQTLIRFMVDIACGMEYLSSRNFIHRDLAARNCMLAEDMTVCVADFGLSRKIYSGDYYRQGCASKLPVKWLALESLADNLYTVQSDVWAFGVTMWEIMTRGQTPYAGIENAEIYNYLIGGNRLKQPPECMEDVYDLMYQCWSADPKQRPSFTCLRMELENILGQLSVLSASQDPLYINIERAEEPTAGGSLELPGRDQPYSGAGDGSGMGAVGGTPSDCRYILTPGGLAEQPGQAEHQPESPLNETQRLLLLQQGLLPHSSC
In words: Inhibition of TYRO3 (unknown origin) assessed as residual activity at 100 nM by KINOMEscan analysis relative to control.

Test [5] deals with SRSF protein kinase 2 (Homo sapiens) (UniProt P78362). Briefly: Inhibition of SRPK2 (unknown origin) assessed as residual activity at 100 nM by KINOMEscan analysis relative to control.
The target of test [6] is Proto-oncogene tyrosine-protein kinase Src (Homo sapiens) (UniProt P12931). Briefly: Inhibition of SRC (unknown origin) assessed as residual activity at 100 nM by KINOMEscan analysis relative to control.
Test [7] concerns the target Cyclin-dependent kinase 13 (Homo sapiens) (UniProt Q14004). Briefly: Inhibition of CDC2L5 (unknown origin) assessed as residual activity at 100 nM by KINOMEscan analysis relative to control.
The target in test [8] is Calcium/calmodulin-dependent protein kinase type 1 (Homo sapiens) (UniProt Q14012). In words: Inhibition of CAMK1 (unknown origin) assessed as residual activity at 100 nM by KINOMEscan analysis relative to control.
The target of test [9] is Ribosomal protein S6 kinase alpha-2 (Homo sapiens) (UniProt Q15349). Briefly: Inhibition of N-terminal RSK3 […] domain 1 (unknown origin) assessed as residual activity at 100 nM by KINOMEscan analysis relative to control.
For test [10], the species on record is Homo sapiens. In words: Inhibition of C-terminal RPS6KA4 kinetic domain 2 (unknown origin) assessed as residual activity at 100 nM by KINOMEscan analysis relative to control.
Test [11] concerns the target Calcium/calmodulin-dependent protein kinase type II subunit beta (Homo sapiens) (UniProt Q13554). In words: Inhibition of CAMK2B (unknown origin) assessed as residual activity at 100 nM by KINOMEscan analysis relative to control.
For test [12], the target named is T2, Serine/threonine-protein kinase 17B (Homo sapiens) (UniProt O94768).
T2 sequence (whole entry): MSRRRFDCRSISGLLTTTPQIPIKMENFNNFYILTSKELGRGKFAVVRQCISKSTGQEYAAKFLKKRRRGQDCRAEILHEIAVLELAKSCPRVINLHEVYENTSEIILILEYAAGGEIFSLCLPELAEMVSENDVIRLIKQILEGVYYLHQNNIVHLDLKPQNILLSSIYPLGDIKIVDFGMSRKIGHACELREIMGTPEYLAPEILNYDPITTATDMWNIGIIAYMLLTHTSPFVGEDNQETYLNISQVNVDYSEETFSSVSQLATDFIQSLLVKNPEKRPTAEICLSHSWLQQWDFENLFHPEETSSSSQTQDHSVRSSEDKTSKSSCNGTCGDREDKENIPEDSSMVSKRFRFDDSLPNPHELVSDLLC
In words: Inhibition of DRAK2 (unknown origin) assessed as residual activity at 100 nM by KINOMEscan analysis relative to control.

Test [13] has as its system Receptor-type tyrosine-protein kinase FLT3 (Homo sapiens), P36888 [UNDEFINED MUTATION]. Briefly: Inhibition of FLT3 ITD mutant (unknown origin) assessed as residual activity at 100 nM by KINOMEscan analysis relative to control.

Receptor-type tyrosine-protein kinase FLT3 (Homo sapiens), P36888 [UNDEFINED MUTATION], sequence (P36888 whole entry, looked up, change not shown): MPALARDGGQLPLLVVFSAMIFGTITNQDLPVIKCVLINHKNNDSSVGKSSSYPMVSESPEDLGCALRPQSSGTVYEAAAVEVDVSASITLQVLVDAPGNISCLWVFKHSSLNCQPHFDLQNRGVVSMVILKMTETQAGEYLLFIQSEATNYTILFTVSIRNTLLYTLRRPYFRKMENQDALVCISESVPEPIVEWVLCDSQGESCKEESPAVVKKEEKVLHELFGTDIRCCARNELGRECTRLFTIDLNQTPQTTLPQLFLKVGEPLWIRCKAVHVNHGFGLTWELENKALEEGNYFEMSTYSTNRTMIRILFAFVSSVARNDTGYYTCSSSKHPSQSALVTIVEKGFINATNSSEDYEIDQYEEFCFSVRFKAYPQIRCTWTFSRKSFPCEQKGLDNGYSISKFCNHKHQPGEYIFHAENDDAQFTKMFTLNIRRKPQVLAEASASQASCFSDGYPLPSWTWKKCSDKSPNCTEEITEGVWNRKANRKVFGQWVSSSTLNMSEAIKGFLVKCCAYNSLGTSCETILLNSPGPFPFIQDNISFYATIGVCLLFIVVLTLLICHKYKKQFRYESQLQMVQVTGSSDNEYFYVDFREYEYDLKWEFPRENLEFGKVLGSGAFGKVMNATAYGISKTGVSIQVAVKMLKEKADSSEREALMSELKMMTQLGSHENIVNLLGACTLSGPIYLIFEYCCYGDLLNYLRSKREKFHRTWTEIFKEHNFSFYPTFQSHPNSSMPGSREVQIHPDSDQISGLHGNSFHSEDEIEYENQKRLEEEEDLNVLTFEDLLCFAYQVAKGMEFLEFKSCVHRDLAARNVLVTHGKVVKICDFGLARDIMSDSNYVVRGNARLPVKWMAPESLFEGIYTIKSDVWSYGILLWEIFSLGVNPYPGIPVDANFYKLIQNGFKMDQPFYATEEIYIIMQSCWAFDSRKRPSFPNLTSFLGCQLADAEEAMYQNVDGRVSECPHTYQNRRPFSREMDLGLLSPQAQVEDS
Cyclin-dependent kinase 13 (Homo sapiens), sequence (Q14004 whole entry, looked up): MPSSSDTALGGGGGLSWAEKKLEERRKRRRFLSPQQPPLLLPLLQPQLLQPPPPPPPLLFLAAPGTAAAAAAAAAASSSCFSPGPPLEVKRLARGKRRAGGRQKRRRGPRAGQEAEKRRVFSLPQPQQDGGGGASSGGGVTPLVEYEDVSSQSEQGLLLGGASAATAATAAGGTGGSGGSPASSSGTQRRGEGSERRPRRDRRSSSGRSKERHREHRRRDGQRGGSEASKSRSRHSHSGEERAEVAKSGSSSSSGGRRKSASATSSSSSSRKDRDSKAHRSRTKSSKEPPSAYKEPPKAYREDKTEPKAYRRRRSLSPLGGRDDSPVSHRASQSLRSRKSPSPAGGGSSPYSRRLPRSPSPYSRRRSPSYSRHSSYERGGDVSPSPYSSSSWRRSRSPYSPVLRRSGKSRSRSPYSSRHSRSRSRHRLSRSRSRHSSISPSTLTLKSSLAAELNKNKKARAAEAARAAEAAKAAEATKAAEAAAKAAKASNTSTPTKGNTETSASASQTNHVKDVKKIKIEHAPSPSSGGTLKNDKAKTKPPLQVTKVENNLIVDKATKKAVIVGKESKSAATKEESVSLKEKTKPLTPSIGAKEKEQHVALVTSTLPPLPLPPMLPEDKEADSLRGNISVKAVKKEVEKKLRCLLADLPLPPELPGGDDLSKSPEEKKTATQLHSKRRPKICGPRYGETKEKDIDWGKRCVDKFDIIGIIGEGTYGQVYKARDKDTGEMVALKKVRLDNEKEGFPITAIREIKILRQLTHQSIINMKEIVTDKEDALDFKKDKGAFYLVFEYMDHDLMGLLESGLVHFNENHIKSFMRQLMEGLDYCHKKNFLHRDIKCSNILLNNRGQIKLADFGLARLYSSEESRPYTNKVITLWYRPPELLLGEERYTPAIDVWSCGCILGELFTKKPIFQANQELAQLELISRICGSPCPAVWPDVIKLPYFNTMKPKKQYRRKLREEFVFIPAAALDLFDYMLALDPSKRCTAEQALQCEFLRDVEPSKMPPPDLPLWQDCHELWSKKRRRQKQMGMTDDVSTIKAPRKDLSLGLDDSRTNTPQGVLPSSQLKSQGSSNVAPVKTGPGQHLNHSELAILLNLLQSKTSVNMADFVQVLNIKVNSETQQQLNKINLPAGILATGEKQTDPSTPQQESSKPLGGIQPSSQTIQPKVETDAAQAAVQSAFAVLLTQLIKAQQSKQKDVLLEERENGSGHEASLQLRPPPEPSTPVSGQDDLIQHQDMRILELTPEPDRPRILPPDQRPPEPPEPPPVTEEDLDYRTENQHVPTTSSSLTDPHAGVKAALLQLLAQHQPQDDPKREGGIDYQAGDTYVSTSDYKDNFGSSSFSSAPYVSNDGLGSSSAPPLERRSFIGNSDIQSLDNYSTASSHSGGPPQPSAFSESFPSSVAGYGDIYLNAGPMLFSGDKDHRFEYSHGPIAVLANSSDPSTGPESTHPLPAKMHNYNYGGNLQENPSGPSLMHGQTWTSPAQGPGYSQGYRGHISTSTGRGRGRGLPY
SRSF protein kinase 2 (Homo sapiens), sequence (P78362 whole entry, looked up): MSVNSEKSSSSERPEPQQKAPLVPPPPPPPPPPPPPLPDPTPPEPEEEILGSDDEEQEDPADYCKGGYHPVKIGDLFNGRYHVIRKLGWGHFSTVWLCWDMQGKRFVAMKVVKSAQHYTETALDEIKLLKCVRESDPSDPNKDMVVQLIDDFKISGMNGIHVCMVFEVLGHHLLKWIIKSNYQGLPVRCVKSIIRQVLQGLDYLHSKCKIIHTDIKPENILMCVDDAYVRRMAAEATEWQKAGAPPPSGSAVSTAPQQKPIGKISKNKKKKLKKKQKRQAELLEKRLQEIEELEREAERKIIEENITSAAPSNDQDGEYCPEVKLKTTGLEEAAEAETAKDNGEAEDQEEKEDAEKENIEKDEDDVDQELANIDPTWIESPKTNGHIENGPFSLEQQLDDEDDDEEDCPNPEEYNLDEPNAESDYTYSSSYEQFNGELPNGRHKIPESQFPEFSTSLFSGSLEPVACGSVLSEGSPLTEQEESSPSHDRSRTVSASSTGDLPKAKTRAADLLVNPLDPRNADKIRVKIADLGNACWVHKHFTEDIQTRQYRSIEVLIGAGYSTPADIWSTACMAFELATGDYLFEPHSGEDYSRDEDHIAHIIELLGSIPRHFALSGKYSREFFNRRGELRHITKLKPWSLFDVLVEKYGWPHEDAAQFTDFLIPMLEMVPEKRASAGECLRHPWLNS
Calcium/calmodulin-dependent protein kinase type II subunit beta (Homo sapiens), sequence (Q13554 whole entry): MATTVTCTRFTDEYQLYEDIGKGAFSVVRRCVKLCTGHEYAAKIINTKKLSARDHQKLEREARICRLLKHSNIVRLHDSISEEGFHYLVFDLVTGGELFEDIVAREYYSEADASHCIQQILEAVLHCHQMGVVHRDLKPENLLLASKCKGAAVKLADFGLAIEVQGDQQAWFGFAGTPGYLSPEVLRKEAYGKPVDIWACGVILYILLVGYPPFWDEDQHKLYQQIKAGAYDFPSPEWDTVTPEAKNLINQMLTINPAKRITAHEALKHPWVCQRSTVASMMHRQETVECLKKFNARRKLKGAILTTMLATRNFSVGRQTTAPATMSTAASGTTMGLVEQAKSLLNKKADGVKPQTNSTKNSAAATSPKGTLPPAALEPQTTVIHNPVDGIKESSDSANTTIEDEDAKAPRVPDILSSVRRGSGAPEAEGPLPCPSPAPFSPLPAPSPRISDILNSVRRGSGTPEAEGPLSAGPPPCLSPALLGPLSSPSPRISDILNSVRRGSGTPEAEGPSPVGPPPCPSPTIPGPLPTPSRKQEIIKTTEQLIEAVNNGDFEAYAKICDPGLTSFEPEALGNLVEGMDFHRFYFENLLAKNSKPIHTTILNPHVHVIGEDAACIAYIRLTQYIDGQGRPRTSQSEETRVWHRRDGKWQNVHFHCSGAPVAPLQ
Serine/threonine-protein kinase 26 (Homo sapiens), sequence (Q9P289 2-416 limits assumed): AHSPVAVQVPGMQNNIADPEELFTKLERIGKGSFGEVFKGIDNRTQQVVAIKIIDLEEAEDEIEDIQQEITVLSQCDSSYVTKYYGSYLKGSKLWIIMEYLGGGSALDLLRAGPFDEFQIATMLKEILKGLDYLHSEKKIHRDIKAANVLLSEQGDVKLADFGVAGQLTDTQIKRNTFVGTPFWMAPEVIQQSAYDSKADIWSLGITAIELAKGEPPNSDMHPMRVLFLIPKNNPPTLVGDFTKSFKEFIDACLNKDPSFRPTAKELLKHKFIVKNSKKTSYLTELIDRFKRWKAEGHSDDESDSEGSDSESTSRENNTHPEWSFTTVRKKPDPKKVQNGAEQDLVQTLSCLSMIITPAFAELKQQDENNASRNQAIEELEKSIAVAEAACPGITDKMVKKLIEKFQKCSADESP
Calcium/calmodulin-dependent protein kinase type 1 (Homo sapiens), sequence (Q14012 whole entry, looked up): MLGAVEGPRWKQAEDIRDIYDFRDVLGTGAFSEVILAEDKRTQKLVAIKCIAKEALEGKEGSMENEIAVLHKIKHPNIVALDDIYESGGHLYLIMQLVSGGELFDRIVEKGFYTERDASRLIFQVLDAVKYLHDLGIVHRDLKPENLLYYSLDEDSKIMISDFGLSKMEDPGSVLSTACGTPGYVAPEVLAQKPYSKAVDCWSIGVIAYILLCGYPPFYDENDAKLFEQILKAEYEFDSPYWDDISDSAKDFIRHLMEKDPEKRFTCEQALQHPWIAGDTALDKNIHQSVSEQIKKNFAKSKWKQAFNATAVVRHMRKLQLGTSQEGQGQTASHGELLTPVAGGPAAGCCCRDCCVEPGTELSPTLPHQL

Turning to `COc1cc2ncnc(N[C@H](C)c3cccc4ccccc34)c2cc1OC`, the Activity is 100% in test [1]; 99% in [2]; 88% in [3]; 76% in test [4]; 92% in [5]; 90% in test [6]. In addition, the Activity in [7] turned out to be 92%; in [8] it was 100%; in [9] it was 100%; in test [10], 87%; in [11], 100%; in test [12], 100%. Also, the Activity in test [13] was determined as 100%.
